No end group written: not given here.
System: sera from tuberculosis patients
Assay: ELISA recognition of synthetic MTP40 peptides by human sera
Format: binding
Details: sera from active tuberculosis patients having B(+) sputum; peptide coated at 3 micrograms per well

**Q.** “WLKLGLVEFGGVAKLNAEVMS [S698, synthetic peptide derived from M. tuberculosis MTP40 protein]” was tested. Which “percentage of sera recognizing the peptide (ELISA)” value did it give?
**A.** 20.8%

— patent US5254459A, “Nucleotide and amino acid sequences of protein MTP40 of M. tuberculosis and synthetic peptides derived therefrom” (priority 1992, dated 1993)
